Results as given in ChEMBL document CHEMBL4014265, “Crassins A-H, Diterpenoids from the Roots of Croton crassifolius” (J Nat Prod, 2017).

Legend:
HL-60 [1] = assay: Cytotoxicity against human HL60 cells assessed as growth inhibition at 20 uM after 72 hrs by MTT assay relative to control; type: functional; conditions: HL-60, 72 h, read-out: GI
A549 [2] = assay: Cytotoxicity against human A549 cells assessed as growth inhibition at 20 uM after 72 hrs by SRB assay relative to control; type: functional; conditions: A549, 72 h, read-out: GI
HL-60 [3] = assay: Cytotoxicity against human HL60 cells assessed as growth inhibition after 72 hrs by MTT assay; type: functional, cell-based; conditions: HL-60, 72 h
A549 [4] = assay: Cytotoxicity against human A549 cells assessed as growth inhibition after 72 hrs by SRB assay; type: functional, cell-based; conditions: A549, 72 h

Structure (SMILES) | inhibition of growth at 20 µM (HL-60 [1]) [%] | inhibition of growth at 20 µM (A549 [2]) [%] | IC50 (HL-60 [3]) [µM] | IC50 (A549 [4]) [µM]
COC(=O)[C@@]1(C)CC(=O)C2=C(c3ccoc3)C[C@]3(C)C2=C1CC[C@H]3C | > 50 | > 50 | 10.5 | 8.4
COC(=O)[C@]1(C)CCCC2=C1CC[C@@H](C)[C@]2(C)CCC1=CC(=O)O[C@H]1O | > 50 | > 50 | 11.8 | 5.2
